Source: patent publication US11014911B2, “CDK2 inhibitors” (Pfizer Inc., priority 2019, dated 2021)

How the values were obtained:
[1] = target: GSK3β (H350L) (Homo sapiens (Human), UniProt P49841); settings: read-out: GSK3β Ki
Procedure: The assay was initiated with the addition of ATP, following 15 minutes pre-incubation of enzyme and inhibitor at room temperature in the reaction mixture. The reaction was stopped after 30 minutes at room temperature by the addition of 50 μL of 80 mM EDTA.

[2] = target: CDK2/Cyclin E1 full length (Homo sapiens (Human), UniProt P24941); assay: CDK2/Cyclin E1 full length mobility shift assay; type: biochemical

Chain of GSK3β (H350L) (P49841 whole entry, stated change not applied): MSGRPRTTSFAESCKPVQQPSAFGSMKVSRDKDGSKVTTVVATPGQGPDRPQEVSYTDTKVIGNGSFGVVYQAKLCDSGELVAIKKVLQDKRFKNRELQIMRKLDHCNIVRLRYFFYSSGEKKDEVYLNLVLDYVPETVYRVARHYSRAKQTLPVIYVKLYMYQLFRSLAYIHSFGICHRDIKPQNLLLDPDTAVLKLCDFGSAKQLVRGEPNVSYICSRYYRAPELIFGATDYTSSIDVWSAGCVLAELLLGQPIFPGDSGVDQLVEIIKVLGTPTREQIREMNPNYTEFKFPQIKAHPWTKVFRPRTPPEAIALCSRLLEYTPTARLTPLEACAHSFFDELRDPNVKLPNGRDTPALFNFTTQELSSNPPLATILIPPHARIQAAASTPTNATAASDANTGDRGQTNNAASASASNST

Row | Compound | Ki [1] [nM] | Ki [2] [nM]
1 | C[C@H]1CCCN1C(=O)O[C@@H]1CC[C@H](c2cc(NC(=O)Cc3ccn(C)n3)n[nH]2)C1 [Example 140] | 15.3 | 
2 | CCCNC(=O)O[C@@H]1CC[C@H](c2cc(NC(=O)Cc3ccnc(OC)c3)[nH]n2)C1 [Example 1, (1R,3S)-3-(3-{[(2-methoxypyridin-4-yl)acetyl]amino}-1H-pyrazol-5-yl)cyclopentyl propylcarbamate] | 26.2 | 
3 | COc1cc(CC(=O)Nc2cc([C@H]3CC[C@@H](OC(=O)N4[C@H](C)C[C@H]4C)C3)[nH]n2)ccn1 [Example 609, (1R,3S)-3-(3-{[(2-methoxypyridin-4-yl)acetyl]amino}-1H-pyrazol-5-yl)cyclopentyl (2R,4R)-2,4-dimethylazetidine-1-carboxylate] |  | 4.81
4 | Cn1ccc(CC(=O)Nc2cc([C@H]3CC[C@@H](OC(=O)NC4(C)CC4)C3)[nH]n2)n1 [Example 421, (1R,3S)-3-(3-{[(1-methyl-1H-pyrazol-3-yl)acetyl]amino}-1H-pyrazol-5-yl)cyclopentyl (1-methylcyclopropyl)carbamate] |  | 0.94
5 | CC1(NC(=O)O[C@@H]2CC[C@H](c3cc(NC(=O)Cc4ncccc4F)n[nH]3)C2)CC1 [Example 429, (1R,3S)-3-(3-{[(3-fluoropyridin-2-yl)acetyl]amino}-1H-pyrazol-5-yl)cyclopentyl (1-methylcyclopropyl)carbamate] |  | 1.15
6 | CC(C)(C)NC(=O)O[C@@H]1CC[C@H](c2cc(NC(=O)Cc3cnn(CC(F)(F)F)n3)n[nH]2)C1 [Example 318, (1R,3S)-3-[3-({[2-(2,2,2-trifluoroethyl)-2H-1,2,3-triazol-4-yl]acetyl}amino)-1H-pyrazol-5-yl]cyclopentyl tert-butylcarbamate] |  | 0.53
7 | CCCNC(=O)O[C@@H]1CC[C@H](c2cc(NC(=O)Cc3ccccc3S(=O)(=O)C(C)C)n[nH]2)C1 [Example 211, (1R,3S)-3-[3-({[2-(propan-2-ylsulfonyl)phenyl]acetyl}amino)-1H-pyrazol-5-yl]cyclopentyl propylcarbamate] |  | 4.87
8 | Cc1cnc(CC(=O)Nc2cc([C@H]3CC[C@@H](OC(=O)N4CC[C@@H]4C)C3)[nH]n2)cn1 [Example 591, (1R,3S)-3-(3-{[(5-methylpyrazin-2-yl)acetyl]amino}-1H-pyrazol-5-yl)cyclopentyl (2S)-2-methylazetidine-1-carboxylate] |  | 1.67
9 | COc1ccc(S(C)(=O)=O)c(CC(=O)Nc2cc([C@H]3CC[C@@H](OC(=O)NC(C)C(F)(F)F)C3)[nH]n2)c1 (single isomer, unassigned) [Example 292] |  | 0.86
10 | C[C@H]1[C@H](C#N)CN1C(=O)O[C@@H]1CC[C@H](c2cc(NC(=O)Cc3ccccc3)n[nH]2)C1 (single isomer, unassigned) [Example 162] |  | 3.01
11 | COc1cc(C(=O)Nc2cc([C@H]3CC[C@@H](OC(=O)NC(C)(C)C)C3)[nH]n2)n(C)n1 [Example 302, (1R,3S)-3-(3-{[(3-methoxy-1-methyl-1H-pyrazol-5-yl)carbonyl]amino}-1H-pyrazol-5-yl)cyclopentyl tert-butylcarbamate] |  | 0.5
12 | CCNC(=O)O[C@@H]1CC[C@H](c2cc(NC(=O)Cc3cnc(C)s3)n[nH]2)C1 [Example 229, (1R,3S)-3-(3-{[(2-methyl-1,3-thiazol-5-yl)acetyl]amino}-1H-pyrazol-5-yl)cyclopentyl ethylcarbamate] |  | 2.06
13 | CCC1CCN1C(=O)O[C@@H]1CC[C@H](c2cc(NC(=O)Cc3ncc(C)o3)n[nH]2)C1 (single isomer, unassigned) [Example 599] |  | 1.38
14 | CC(C)NC(=O)O[C@@H]1CC[C@H](c2cc(NC(=O)C3COc4ccccc43)n[nH]2)C1 (single isomer, unassigned) [Example 57] |  | 3.54
15 | Cc1cnc(CC(=O)Nc2cc([C@H]3CC[C@@H](OC(=O)NC(C)C)C3)[nH]n2)o1 [Example 271, (1R,3S)-3-(3-{[(5-methyl-1,3-oxazol-2-yl)acetyl]amino}-1H-pyrazol-5-yl)cyclopentyl propan-2-ylcarbamate] |  | 1.57
16 | C[C@@H](CF)NC(=O)O[C@@H]1CC[C@H](c2cc(NC(=O)Cc3cnn(C)c3)n[nH]2)C1 [Example 378, (1R,3S)-3-(3-{[(1-methyl-1H-pyrazol-4-yl)acetyl]amino}-1H-pyrazol-5-yl)cyclopentyl [(2S)-1-fluoropropan-2-yl]carbamate] |  | 0.83
17 | COc1ccc(CC(=O)Nc2cc([C@H]3CC[C@@H](OC(=O)N[C@H]4CC[C@](C)(O)CC4)C3)[nH]n2)cc1 [Example 567, (1R,3S)-3-(3-{[(4-methoxyphenyl)acetyl]amino}-1H-pyrazol-5-yl)cyclopentyl (trans-4-hydroxy-4-methylcyclohexyl)carbamate] |  | 1.61
18 | CC[C@H](C)NC(=O)O[C@@H]1CC[C@H](c2cc(NC(=O)Cc3ncc(C)s3)n[nH]2)C1 [Example 341, (1R,3S)-3-(3-{[(5-methyl-1,3-thiazol-2-yl)acetyl]amino}-1H-pyrazol-5-yl)cyclopentyl (2S)-butan-2-ylcarbamate] |  | 0.64
19 | CCC(O)CNC(=O)O[C@@H]1CC[C@H](c2cc(NC(=O)Cc3ccc(OC)cc3)n[nH]2)C1 (single isomer, unassigned) [Example 540] |  | 2.65

Row | Compound | Ki [1] [nM] | Ki [2] [nM]
20 | Cn1ncc(CC(=O)Nc2cc([C@H]3CC[C@@H](OC(=O)NCCC(F)(F)F)C3)[nH]n2)n1 [Example 217, (1R,3S)-3-(3-{[(2-methyl-2H-1,2,3-triazol-4-yl)acetyl]amino}-1H-pyrazol-5-yl)cyclopentyl (3,3,3-trifluoropropyl)carbamate] |  | 2.22
21 | CC(CO)CNC(=O)O[C@@H]1CC[C@H](c2cc(NC(=O)Cc3cc(F)cc(F)c3)n[nH]2)C1 (single isomer, unassigned) [Example 539] |  | 2.35
22 | CC[C@H](C)NC(=O)O[C@@H]1CC[C@H](c2cc(NC(=O)Cc3c(S(C)(=O)=O)c4ccccc4n3C)n[nH]2)C1 [Example 377, (1R,3S)-3-[3-({[1-methyl-3-(methylsulfonyl)-1H-indol-2-yl]acetyl}amino)-1H-pyrazol-5-yl]cyclopentyl (2S)-butan-2-ylcarbamate] |  | 1.14
23 | CCCNC(=O)O[C@H]1CC[C@@H](c2cc(NC(=O)Cc3ccnc(OC)c3O)n[nH]2)C1 [Example 194, (1S,3R)-3-(3-{[(3-hydroxy-2-methoxypyridin-4-yl)acetyl]amino}-1H-pyrazol-5-yl)cyclopentyl propylcarbamate] |  | 0.8
24 | Cc1cnc(CC(=O)Nc2cc([C@H]3CC[C@@H](OC(=O)N[C@@H](C)C4CC4)C3)[nH]n2)cn1 [Example 470, (1R,3S)-3-(3-{[(5-methylpyrazin-2-yl)acetyl]amino}-1H-pyrazol-5-yl)cyclopentyl [(1S)-1-cyclopropylethyl]carbamate] |  | 0.83
25 | COCCn1nccc1C(=O)Nc1cc([C@H]2CC[C@@H](OC(=O)NC(C)CC(F)(F)F)C2)[nH]n1 (single isomer, unassigned) [Example 88] |  | 0.15
26 | CC[C@H](C)NC(=O)O[C@@H]1CC[C@H](c2cc(NC(=O)Cc3ccccc3S(C)(=N)=O)n[nH]2)C1 (single isomer, unassigned) [Example 368] |  | 0.41
27 | COCc1cc(C(=O)Nc2cc([C@H]3CC[C@@H](OC(=O)NC4(C)CCOC4)C3)[nH]n2)n(C)n1 (single isomer, unassigned) [Example 488] |  | 1.4
28 | CCC(CO)CNC(=O)O[C@@H]1CC[C@H](c2cc(NC(=O)Cc3ccc(OC)cc3)n[nH]2)C1 (single isomer, unassigned) [Example 530] |  | 2.03
29 | C[C@]1(O)CC[C@H](NC(=O)O[C@H]2CC[C@@H](c3cc(NC(=O)Cc4ccc(F)cc4)n[nH]3)C2)CC1 [Example 561, (1S,3R)-3-(3-{[(4-fluorophenyl)acetyl]amino}-1H-pyrazol-5-yl)cyclopentyl (trans-4-hydroxy-4-methylcyclohexyl)carbamate] |  | 1.8
30 | COc1cc(CC(=O)Nc2cc([C@H]3CC[C@@H](OC(=O)N4C[C@H](O)[C@H]4C)C3)[nH]n2)ccn1 [Example 613, (1R,3S)-3-(3-{[(2-methoxypyridin-4-yl)acetyl]amino}-1H-pyrazol-5-yl)cyclopentyl (2R,3S)-3-hydroxy-2-methylazetidine-1-carboxylate] |  | 2.98
31 | CC(C)(C)NC(=O)O[C@@H]1CC[C@H](c2cc(NC(=O)Cc3coc(C4CC4)n3)n[nH]2)C1 [Example 306, (1R,3S)-3-(3-{[(2-cyclopropyl-1,3-oxazol-4-yl)acetyl]amino}-1H-pyrazol-5-yl)cyclopentyl tert-butylcarbamate] |  | 1.09
32 | COc1cc(CC(=O)Nc2cc([C@H]3CC[C@@H](OC(=O)NC(C)C)C3)[nH]n2)c(OC)cn1 [Example 285, (1R,3S)-3-(3-{[(2,5-dimethoxypyridin-4-yl)acetyl]amino}-1H-pyrazol-5-yl)cyclopentyl propan-2-ylcarbamate] |  | 3.97
33 | CC1(NC(=O)O[C@@H]2CC[C@H](c3cc(NC(=O)Cc4ccon4)n[nH]3)C2)CC1 [Example 419, (1R,3S)-3-{3-[(1,2-oxazol-3-ylacetyl)amino]-1H-pyrazol-5-yl}cyclopentyl (1-methylcyclopropyl)carbamate] |  | 0.36
34 | COc1ncccc1CC(=O)Nc1cc([C@H]2CC[C@@H](OC(=O)NC(C)(C)C)C2)[nH]n1 [Example 307, (1R,3S)-3-(3-{[(2-methoxypyridin-3-yl)acetyl]amino}-1H-pyrazol-5-yl)cyclopentyl tert-butylcarbamate] |  | 0.73
35 | CCC(O)CNC(=O)O[C@@H]1CC[C@H](c2cc(NC(=O)Cc3cc(F)cc(F)c3)n[nH]2)C1 (single isomer, unassigned) [Example 543] |  | 1.96
36 | COc1ccc(CC(=O)Nc2cc([C@H]3CC[C@@H](OC(=O)N4C[C@@H](O)[C@@H]4C)C3)[nH]n2)cn1 [Example 615, (1R,3S)-3-(3-{[(6-methoxypyridin-3-yl)acetyl]amino}-1H-pyrazol-5-yl)cyclopentyl (2S,3R)-3-hydroxy-2-methylazetidine-1-carboxylate] |  | 1.99
37 | CCCNC(=O)O[C@@H]1CC[C@H](c2cc(NC(=O)Cc3cccc4ncsc34)n[nH]2)C1 [Example 196, (1R,3S)-3-{3-[(1,3-benzothiazol-7-ylacetyl)amino]-1H-pyrazol-5-yl}cyclopentyl propylcarbamate] |  | 1.44
